Assay [1] deals with MDA-MB-231. The assay is described as follows: Cytotoxicity against human MDA-MB-231 cells after 48 hrs by sulforhodamine B assay. Format: functional, cell-based. The following applies: MDA-MB-231, 48 h.
The subject of assay [2] is HeLa. Description: Inhibition of beta-tubulin assembly in human HeLa cells assessed as effect on microtubule density at 5 uM after 18 hrs by immunofluorescence assay. In kind it is cell-based.
For assay [3], the system named is HeLa. The assay is described as follows: Cytotoxicity against human HeLa cells after 48 hrs by sulforhodamine B assay. In kind it is functional, cell-based. A general note: Sulforhodamine B stains cellular protein and so reports cell mass.
The test system of assay [4] is MDA-MB-435. Description: Cytotoxicity against human MDA-MB-435 cells after 48 hrs by sulforhodamine B assay. In kind it is functional, cell-based. The following applies: MDA-MB-435, 48 h.
The test system of assay [5] is PC-3. The assay is described as follows: Cytotoxicity against human PC3 cells after 48 hrs by sulforhodamine B assay. Format: functional, cell-based. Particulars: PC-3, 48 h.
The test system of assay [6] is HeLa. Description: Inhibition of beta-tubulin assembly in human HeLa cells assessed as effect on microtubule density up to 40 uM after 18 hrs by immunofluorescence assay. In kind it is cell-based.

Structures are written as SMILES. pIC50: −log10 of the molar value. Activity calls are given as the source filed them. The rule behind the calls is not given here.

The term pIC50 denotes −log10 of the IC50, conventionally taken in molar units. Low readings indicate a high IC50, high ones a low IC50.

On to `COC1=CC(=O)C(CCC(=O)c2ccc(OC)c(OC)c2)=C(OC)C1=O` [EVELYNIN], for which the pIC50 was 5.41 in assay [1], 5.20 in assay [3], 5.39 in assay [4] and 5.33 in assay [5]. The inhibition entry in assay [2] and in assay [6] was “inactive” throughout.

The values are drawn from ChEMBL document CHEMBL1221365, “Evelynin, a cytotoxic benzoquinone-type Retro-dihydrochalcone from Tacca chantrieri” (J Nat Prod, 2010).
